According to US20070128217A1 (priority 2003, published 2007):

What was measured:
[1] = tested on: rabbit serum obtained by immunizing a rabbit with the SARS-CoV strain Frankfurt 1; assay type: binding; design: Binding of a rabbit serum to linear peptides / Binding of a rabbit serum to looped peptides / Rabbit serum linear peptides / Rabbit serum looped peptides / Binding of a rabbit serum to linear peptides of protein N of SARS-CoV Urbani (Rabbit serum linear peptides) / Binding of a rabbit serum to looped/cyclic peptides of protein N of SARS-CoV Urbani (Rabbit serum looped peptides): unit not given here
[2] = tested on: control sera (pooled serum of ten healthy LUMC hospital workers; commercial negative donor pooled serum from the Dutch bloodbank); assay type: binding, human; design: Binding of Control serum LUMC to linear peptides / Binding of Control serum Blood-bank to linear peptides / Binding of Control serum LUMC to looped peptides / Binding of Control Serum Blood-Bank to Looped peptides / Binding of Control serum LUMC to linear peptides of the protein M of SARS-CoV Urbani / Binding of Control serum Blood-bank to linear peptides of the protein M of SARS-CoV Urbani / Binding of Control serum LUMC to looped peptides of the protein M of SARS-CoV Urbani / Binding of Control Serum Blood-Bank to Looped peptides of the protein M of SARS-CoV Urbani: unit not given here
[3] = tested on: antibodies in sera from SARS patients (sera 1a, 1b, 2, 6, 37, 62, London, SARS-yellow, SARS-green); assay type: binding, human; design: Binding of serum 6 to linear peptides of protein X1 of SARS-CoV Urbani / Binding of serum 37 to linear peptides of protein X1 of SARS-CoV Urbani / Binding of serum 6 to looped/cyclic peptide (PEPSCAN-ELISA) / Binding of serum 37 to looped/cyclic peptide (PEPSCAN-ELISA) / Binding of serum 37 to looped/cyclic peptides of protein X1 of SARS-CoV Urbani / Binding of serum 6 to linear peptides of protein X2 / Binding of serum 37 to linear peptides of protein X2 / Binding of serum 37 to looped/cyclic peptides of protein X2 of SARS-CoV Urbani / Binding of serum 6 to linear peptides of protein M of SARS-CoV Urbani / Binding of serum 37 to linear peptides of protein M of SARS-CoV Urbani / Binding of serum 6 to looped/cyclic peptides of protein M of SARS-CoV Urbani / Binding of serum 37 to looped/cyclic peptides of protein M of SARS-CoV Urbani / Binding of serum 6 to linear peptides of protein X3 of SARS-CoV Urbani / Binding of serum 37 to linear peptides of protein X3 of SARS-CoV Urbani / Binding of serum 37 to looped/cyclic peptides of protein X3 of SARS-CoV Urbani / Binding of serum 6 to linear peptides of protein X4 of SARS-CoV Urbani / Binding of serum 37 to linear peptides of protein X4 of SARS-CoV Urbani / Binding of serum 37 to looped/cyclic peptides of protein X4 of SARS-CoV Urbani / Binding of serum 6 to linear peptides of protein X5 of SARS-CoV Urbani / Binding of serum 37 to linear peptides of protein X5 of SARS-CoV Urbani / Binding of serum 37 to looped/cyclic peptides of protein X5 of SARS-CoV Urbani / Binding of serum 6 to linear peptides of protein N of SARS-CoV Urbani / Binding of serum 37 to linear peptides of protein N of SARS-CoV Urbani / Binding of serum 6 to linear peptide (PEPSCAN-ELISA) / Binding of serum 1a to looped/cyclic peptides of protein N of SARS-CoV Urbani / Binding of serum 1b to looped/cyclic peptides of protein N of SARS-CoV Urbani / Binding of serum 2 to looped/cyclic peptides of protein N of SARS-CoV Urbani / Binding of serum 6 to looped/cyclic peptides of protein N of SARS-CoV Urbani / Binding of serum 37 to looped/cyclic peptides of protein N of SARS-CoV Urbani / Binding of serum 62 to looped/cyclic peptides of protein N of SARS-CoV Urbani / Binding of serum London to looped/cyclic peptides of protein N of SARS-CoV Urbani / Binding of serum SARS-green to looped/cyclic peptides of protein N of SARS-CoV Urbani: unit not given here

How did the “Rabbit serum linear peptides” value [1] turn out when LKILVRYNTRGNTYS was run?
Its value is 0.9.

And the “Rabbit serum looped peptides” value [1]?
The value was 0.1.

And the “Binding of Control Serum Blood-Bank to Looped peptides” value [2]?
The value was 0.4.

And the “Binding of Control serum Blood-bank to linear peptides” value [2]?
The value was 0.7.

And the “Binding of Control serum LUMC to linear peptides” value [2]?
The value was 0.5.

And the “Binding of Control serum LUMC to looped peptides” value [2]?
Its value is 0.6.

What about the “Binding of serum 1a to linear peptides of protein X5 of SARS-CoV Urbani” value [3] of the same sequence?
The value was 0.7.

What about the “Binding of serum 1a to looped/cyclic peptides of protein X5 of SARS-CoV Urbani” value [3] of the same sequence?
The value was 0.5.

What about the “Binding of serum 1b to linear peptides of protein X5 of SARS-CoV Urbani” value [3] of the same sequence?
The value was 0.6.

And the “Binding of serum 1b to looped/cyclic peptides of protein X5 of SARS-CoV Urbani” value [3]?
The value was 0.4.

What about the “Binding of serum 2 to linear peptides of protein X5 of SARS-CoV Urbani” value [3] of the same sequence?
Its value is 0.8.

What about the “Binding of serum 2 to looped/cyclic peptides of protein X5 of SARS-CoV Urbani” value [3] of the same sequence?
Its value is 0.6.

And the “Binding of serum 6 to linear peptides of protein X5 of SARS-CoV Urbani” value [3]?
Its value is 0.8.

What about the “Binding of serum 6 to looped/cyclic peptides of protein X5 of SARS-CoV Urbani” value [3] of the same sequence?
Its value is 0.5.

What about the “Binding of serum 37 to linear peptides of protein X5 of SARS-CoV Urbani” value [3] of the same sequence?
Its value is 0.7.

And the “Binding of serum 37 to looped/cyclic peptides of protein X5 of SARS-CoV Urbani” value [3]?
Its value is 0.5.

And the “Binding of serum 62 to linear peptides of protein X5 of SARS-CoV Urbani” value [3]?
The value was 0.8.

And the “Binding of serum 62 to looped/cyclic peptides of protein X5 of SARS-CoV Urbani” value [3]?
The value was 0.7.

What about the “Binding of serum London to linear peptides of protein X5 of SARS-CoV Urbani” value [3] of the same sequence?
Its value is 0.7.

What about the “Binding of serum London to looped/cyclic peptides of protein X5 of SARS-CoV Urbani” value [3] of the same sequence?
Its value is 0.2.

And the “Binding of serum SARS-green to linear peptides of protein X5 of SARS-CoV Urbani” value [3]?
The value was 0.6.

What about the “Binding of serum SARS-green to looped/cyclic peptides of protein X5 of SARS-CoV Urbani” value [3] of the same sequence?
Its value is 0.4.

And the “Binding of serum SARS-yellow to linear peptides of protein X5 of SARS-CoV Urbani” value [3]?
Its value is 0.3.

What about the “Binding of serum SARS-yellow to looped/cyclic peptides of protein X5 of SARS-CoV Urbani” value [3] of the same sequence?
The value was 0.8.

For LQFAYSNRNRFLYII, which “Rabbit serum linear peptides” value [1] is on record?
The value was 0.6.

And the “Rabbit serum looped peptides” value [1]?
Its value is 0.4.

And the “Binding of Control Serum Blood-Bank to Looped peptides of the protein M of SARS-CoV Urbani” value [2]?
Its value is 0.6.

And the “Binding of Control serum Blood-bank to linear peptides of the protein M of SARS-CoV Urbani” value [2]?
The value was 0.6.

What about the “Binding of Control serum LUMC to linear peptides of the protein M of SARS-CoV Urbani” value [2] of the same sequence?
Its value is 0.4.

And the “Binding of Control serum LUMC to looped peptides of the protein M of SARS-CoV Urbani” value [2]?
Its value is 0.6.

What about the “Binding of serum 1a to linear peptides of protein M of SARS-CoV Urbani” value [3] of the same sequence?
Its value is 0.7.

And the “Binding of serum 1a to looped/cyclic peptides of protein M of SARS-CoV Urbani” value [3]?
The value was 0.7.

And the “Binding of serum 1b to linear peptides of protein M of SARS-CoV Urbani” value [3]?
The value was 0.5.

And the “Binding of serum 1b to looped/cyclic peptides of protein M of SARS-CoV Urbani” value [3]?
The value was 0.5.

What about the “Binding of serum 2 to linear peptides of protein M of SARS-CoV Urbani” value [3] of the same sequence?
Its value is 0.6.

What about the “Binding of serum 2 to looped/cyclic peptides of protein M of SARS-CoV Urbani” value [3] of the same sequence?
Its value is 0.5.

And the “Binding of serum 6 to linear peptides of protein M of SARS-CoV Urbani” value [3]?
The value was 0.3.

What about the “Binding of serum 6 to looped/cyclic peptides of protein M of SARS-CoV Urbani” value [3] of the same sequence?
The value was 0.7.

And the “Binding of serum 37 to linear peptides of protein M of SARS-CoV Urbani” value [3]?
The value was 0.7.

And the “Binding of serum 37 to looped/cyclic peptides of protein M of SARS-CoV Urbani” value [3]?
The value was 0.6.

And the “Binding of serum 62 to linear peptides of protein M of SARS-CoV Urbani” value [3]?
Its value is 0.7.

What about the “Binding of serum 62 to looped/cyclic peptides of protein M of SARS-CoV Urbani” value [3] of the same sequence?
Its value is 0.6.

What about the “Binding of serum London to linear peptides of protein M of SARS-CoV Urbani” value [3] of the same sequence?
The value was 0.2.

What about the “Binding of serum London to looped/cyclic peptides of protein M of SARS-CoV Urbani” value [3] of the same sequence?
Its value is 0.2.

What about the “Binding of serum SARS-green to linear peptides of protein M of SARS-CoV Urbani” value [3] of the same sequence?
The value was 0.2.

What about the “Binding of serum SARS-green to looped/cyclic peptides of protein M of SARS-CoV Urbani” value [3] of the same sequence?
The value was 0.4.

What about the “Binding of serum SARS-yellow to linear peptides of protein M of SARS-CoV Urbani” value [3] of the same sequence?
Its value is 0.0.

What about the “Binding of serum SARS-yellow to looped/cyclic peptides of protein M of SARS-CoV Urbani” value [3] of the same sequence?
The value was 0.5.

With LMWLSYFVASFRLFA as the sequence, how does the “Rabbit serum linear peptides” value [1] read?
The value was 0.0.

And the “Rabbit serum looped peptides” value [1]?
Its value is 0.3.

And the “Binding of Control Serum Blood-Bank to Looped peptides of the protein M of SARS-CoV Urbani” value [2]?
The value was 0.6.

What about the “Binding of Control serum Blood-bank to linear peptides of the protein M of SARS-CoV Urbani” value [2] of the same sequence?
Its value is 0.5.

What about the “Binding of Control serum LUMC to linear peptides of the protein M of SARS-CoV Urbani” value [2] of the same sequence?
Its value is 0.4.

What about the “Binding of Control serum LUMC to looped peptides of the protein M of SARS-CoV Urbani” value [2] of the same sequence?
Its value is 0.6.

And the “Binding of serum 1a to linear peptides of protein M of SARS-CoV Urbani” value [3]?
The value was 0.6.

What about the “Binding of serum 1b to linear peptides of protein M of SARS-CoV Urbani” value [3] of the same sequence?
The value was 0.4.

And the “Binding of serum 2 to linear peptides of protein M of SARS-CoV Urbani” value [3]?
Its value is 0.4.

And the “Binding of serum 6 to linear peptides of protein M of SARS-CoV Urbani” value [3]?
Its value is 0.3.

What about the “Binding of serum 37 to linear peptides of protein M of SARS-CoV Urbani” value [3] of the same sequence?
The value was 0.3.

And the “Binding of serum 62 to linear peptides of protein M of SARS-CoV Urbani” value [3]?
Its value is 0.4.

And the “Binding of serum London to linear peptides of protein M of SARS-CoV Urbani” value [3]?
Its value is 0.3.

And the “Binding of serum SARS-green to linear peptides of protein M of SARS-CoV Urbani” value [3]?
The value was 0.5.

And the “Binding of serum SARS-yellow to linear peptides of protein M of SARS-CoV Urbani” value [3]?
The value was 0.1.

And the “Recognition of the peptide by sera of SARS-CoV infected individuals, and form (linear, looped/cyclic) in which it is recognized” value [3]?
The value was “recognized in looped/cyclic form”.
